Series [1] addresses Photinus pyralis (firefly) luciferase (Photinus pyralis, UniProt P08659). Description: biochemical. The format is biochemical.
The target of series [2] is T1, human CYP2C9 (Homo sapiens, UniProt P11712).
The target in series [3] is T2, human CYP1A2 (Homo sapiens, UniProt P05177).
T2 sequence (P05177 1-516): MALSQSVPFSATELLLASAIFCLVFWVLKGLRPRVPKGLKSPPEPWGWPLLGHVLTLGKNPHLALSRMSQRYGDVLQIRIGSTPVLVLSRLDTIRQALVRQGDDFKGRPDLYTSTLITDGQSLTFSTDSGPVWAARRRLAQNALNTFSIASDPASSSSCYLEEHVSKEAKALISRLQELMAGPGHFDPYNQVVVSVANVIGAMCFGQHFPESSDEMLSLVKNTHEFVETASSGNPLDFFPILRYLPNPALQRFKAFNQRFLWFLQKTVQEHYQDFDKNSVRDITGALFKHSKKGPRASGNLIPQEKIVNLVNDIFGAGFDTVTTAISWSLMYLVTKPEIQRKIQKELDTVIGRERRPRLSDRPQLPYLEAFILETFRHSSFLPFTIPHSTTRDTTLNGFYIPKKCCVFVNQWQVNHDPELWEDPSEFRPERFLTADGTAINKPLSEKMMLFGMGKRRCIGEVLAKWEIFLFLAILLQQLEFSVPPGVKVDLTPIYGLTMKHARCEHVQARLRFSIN
The series is described as follows: biochemical.

Series [4] deals with T3, human CYP2C19 (Homo sapiens, UniProt P33261). Description: biochemical.
T3 sequence (P33261 whole entry): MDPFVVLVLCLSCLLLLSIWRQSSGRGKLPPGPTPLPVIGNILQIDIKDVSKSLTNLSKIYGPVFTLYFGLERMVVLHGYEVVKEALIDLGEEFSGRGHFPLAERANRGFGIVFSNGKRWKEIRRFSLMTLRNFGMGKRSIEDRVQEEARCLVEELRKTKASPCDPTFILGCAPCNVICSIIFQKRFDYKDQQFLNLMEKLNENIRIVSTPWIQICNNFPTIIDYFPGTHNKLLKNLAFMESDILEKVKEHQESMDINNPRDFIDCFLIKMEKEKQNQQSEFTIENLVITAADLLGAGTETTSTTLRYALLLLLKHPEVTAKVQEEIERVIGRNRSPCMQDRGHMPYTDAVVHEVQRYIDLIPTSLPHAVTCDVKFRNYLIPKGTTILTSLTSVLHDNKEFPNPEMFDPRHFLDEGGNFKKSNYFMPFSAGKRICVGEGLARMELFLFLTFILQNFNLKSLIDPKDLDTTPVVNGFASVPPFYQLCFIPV
In series [5] the target is T4, human CYP2D6 (Homo sapiens, UniProt P10635). Description: biochemical. The following applies: for AC50: CYP2D6 AC50 (half-maximal activity concentration).
T4 sequence (P10635 whole entry): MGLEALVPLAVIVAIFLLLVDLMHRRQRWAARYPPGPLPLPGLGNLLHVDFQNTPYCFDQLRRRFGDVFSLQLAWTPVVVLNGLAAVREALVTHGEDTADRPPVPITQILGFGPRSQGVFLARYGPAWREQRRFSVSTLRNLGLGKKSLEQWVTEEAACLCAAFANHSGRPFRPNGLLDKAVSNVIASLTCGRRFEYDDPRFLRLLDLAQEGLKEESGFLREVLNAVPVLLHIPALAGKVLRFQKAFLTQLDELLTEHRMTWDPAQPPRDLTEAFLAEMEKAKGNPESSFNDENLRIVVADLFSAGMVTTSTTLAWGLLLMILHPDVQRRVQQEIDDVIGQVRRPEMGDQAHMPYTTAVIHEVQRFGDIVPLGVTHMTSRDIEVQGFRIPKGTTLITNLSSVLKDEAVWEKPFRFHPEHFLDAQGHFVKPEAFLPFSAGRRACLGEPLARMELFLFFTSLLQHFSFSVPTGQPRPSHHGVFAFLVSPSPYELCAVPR
For series [6], the target named is T5, CYP3A4 (Homo sapiens, UniProt P08684). The series is described as follows: biochemical. Conditions: for AC50: CYP3A4 AC50 (half-maximal activity concentration).
T5 sequence (P08684 whole entry): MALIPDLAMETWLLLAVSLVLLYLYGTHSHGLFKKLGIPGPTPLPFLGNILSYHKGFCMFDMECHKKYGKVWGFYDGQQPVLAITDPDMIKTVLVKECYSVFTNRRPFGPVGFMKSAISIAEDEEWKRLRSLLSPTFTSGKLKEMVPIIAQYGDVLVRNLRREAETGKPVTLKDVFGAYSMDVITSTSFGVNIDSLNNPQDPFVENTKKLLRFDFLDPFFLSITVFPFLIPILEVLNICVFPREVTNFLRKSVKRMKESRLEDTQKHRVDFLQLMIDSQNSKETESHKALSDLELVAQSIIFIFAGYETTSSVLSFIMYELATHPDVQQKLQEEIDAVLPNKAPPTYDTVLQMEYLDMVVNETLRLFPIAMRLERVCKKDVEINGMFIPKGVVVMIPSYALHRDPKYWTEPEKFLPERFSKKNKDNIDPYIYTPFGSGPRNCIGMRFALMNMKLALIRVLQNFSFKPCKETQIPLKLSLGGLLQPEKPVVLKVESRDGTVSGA
Series [7] has as its target T1, human CYP2C9. The series is described as follows: biochemical.
Series [8] concerns the target T2, human CYP1A2.
The target in series [9] is T5, CYP3A4.
The target in series [10] is T4, human CYP2D6. Conditions: human, 1 h.
In series [11] the target is T3, human CYP2C19.
Where [12] appears, read: CYP2D6 IC50 (half-maximal inhibitory concentration).

The values below come from article PMC12155096 (International Journal of Molecular Sciences, 2025).

Counter-ions that a name gives are not always drawn. Like-named read-outs stand apart in the source and are kept apart here.

T1 sequence (P11712 whole entry): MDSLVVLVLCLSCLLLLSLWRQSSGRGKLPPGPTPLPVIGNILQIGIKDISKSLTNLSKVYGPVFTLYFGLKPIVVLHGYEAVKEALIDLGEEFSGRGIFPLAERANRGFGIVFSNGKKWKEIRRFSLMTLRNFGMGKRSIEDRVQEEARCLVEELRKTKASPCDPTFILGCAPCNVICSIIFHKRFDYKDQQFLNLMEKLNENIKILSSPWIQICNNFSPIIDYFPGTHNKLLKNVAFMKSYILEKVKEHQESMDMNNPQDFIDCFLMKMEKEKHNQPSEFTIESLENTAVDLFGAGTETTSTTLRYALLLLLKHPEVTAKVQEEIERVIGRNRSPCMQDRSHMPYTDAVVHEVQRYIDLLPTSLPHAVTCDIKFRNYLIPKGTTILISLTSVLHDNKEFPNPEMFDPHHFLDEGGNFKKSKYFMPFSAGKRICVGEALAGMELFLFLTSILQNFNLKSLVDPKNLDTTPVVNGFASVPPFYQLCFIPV
Sequence of Photinus pyralis (firefly) luciferase (P08659 whole entry): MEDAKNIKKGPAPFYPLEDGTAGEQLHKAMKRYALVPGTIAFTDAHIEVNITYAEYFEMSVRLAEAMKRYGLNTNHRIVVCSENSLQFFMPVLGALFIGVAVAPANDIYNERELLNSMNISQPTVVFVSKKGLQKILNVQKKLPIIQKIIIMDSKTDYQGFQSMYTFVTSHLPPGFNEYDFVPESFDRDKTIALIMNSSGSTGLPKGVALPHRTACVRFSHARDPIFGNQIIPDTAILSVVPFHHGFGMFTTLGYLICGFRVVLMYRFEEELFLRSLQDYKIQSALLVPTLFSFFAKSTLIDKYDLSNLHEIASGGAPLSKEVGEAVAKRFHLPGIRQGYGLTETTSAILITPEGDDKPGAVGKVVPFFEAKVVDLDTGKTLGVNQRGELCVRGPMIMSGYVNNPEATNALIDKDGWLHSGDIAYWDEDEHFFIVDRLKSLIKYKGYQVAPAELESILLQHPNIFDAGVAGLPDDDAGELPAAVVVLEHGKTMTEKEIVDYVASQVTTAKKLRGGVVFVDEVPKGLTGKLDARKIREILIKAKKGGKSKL

By IC50 is commonly meant the point on the concentration scale where inhibition reaches its midpoint. A higher IC50 goes with lower potency. On to `C=CCOc1cc(Cl)ccc1C(=O)NCCN(CC)CC` [Alloclamide], for which the “Luciferase IC50 (half-maximal inhibitory concentration)” value in [1] is listed as “Inactive”. In addition, the “CYP2C9 IC50 (half-maximal inhibitory concentration)” value in series [2] is on record as “Inactive”. The IC50 was determined as 3.34 µM in series [3], 26.8 µM in [4], 0.28 µM in [5] and 16.8 µM in [6].
Regarding `CN(C)c1ccc(C(=N)c2ccc(N(C)C)cc2)cc1` [Auramine hydrochloride], the “Luciferase IC50 (half-maximal inhibitory concentration)” value in series [1] is given as “Inactive”. Further, the “CYP2C9 IC50 (half-maximal inhibitory concentration)” value in series [2] is recorded as “Inactive”. The IC50 in series [3] (CYP1A2 IC50 (half-maximal inhibitory concentration)) came out at 25.3 µM; in series [4] (CYP2C19 IC50 (half-maximal inhibitory concentration)) it was 21 µM; in series [5] (setting [12]), 0.08 µM; in [6] (CYP3A4 IC50 (half-maximal inhibitory concentration)) it was 39.3 µM.
With `O=C1C2(Cl)C3(Cl)C4(Cl)C(Cl)(Cl)C5(Cl)C3(Cl)C1(Cl)C5(Cl)C24Cl` (centres unmarked) [Kepone], in series [1], the “Luciferase IC50” value is “Inactive”. In addition, the IC50 in series [3] (CYP1A2 IC50) stood at 36.4 µM; in series [7], 6.47 µM; in series [4] (CYP2C19 IC50), 0.87 µM; in series [5], 67.9 µM; in series [6] (CYP3A4 IC50), 3.13 µM.
Usually AC50 stands for the midpoint of the concentration-response curve, whichever way the signal moves. Lower therefore signals activity at low concentration. Regarding `CC(CCc1ccccc1)NCC(O)c1ccc(O)c(C(N)=O)c1` (centres unmarked) [Labetalol hydrochloride], the “Luciferase IC50 (half-maximal inhibitory concentration)” value in series [1] is given as “Inactive”. Besides, the “CYP1A2 IC50 (half-maximal inhibitory concentration)” value in series [8] is “Inactive”. For the same compound, in series [2], the “CYP2C9 IC50 (half-maximal inhibitory concentration)” value is reported as “Inactive”. For the same compound, the “CYP3A4 IC50 (half-maximal inhibitory concentration)” value in [9] is reported as 34.77 ± 1.39 (96 ± 9) µM. For the same compound, the results for the AC50 in series [5] and in [6] were 0.62 µM and 34.8 µM, respectively. Further, in series [5] (setting [12]), the IC50 came to 0.62 µM.
`CCCCN(CCCC)CC(O)c1cc(Cl)cc2c1-c1ccc(Cl)cc1/C2=C/c1ccc(Cl)cc1` (centres unmarked) [Lumefantrine]: the “Luciferase IC50” value in series [1] is listed as “Inactive”. In addition, the half-maximal inhibitory concentration (IC50) was 14.8 µM in [3] (CYP1A2 IC50); 16.2 µM in series [7] (CYP2C9 IC50); 26.9 µM in [4] (CYP2C19 IC50); 0.69 µM in series [5] (CYP2D6 IC50); 16.8 µM in [6] (CYP3A4 IC50).
Turning to `CCN(CC)C(=O)[C@@H]1C=C2c3cccc4[nH]cc(c34)C[C@H]2N(C)C1` [Lysergide], the “Luciferase IC50” value in series [1] is reported as “Inactive”. For the same compound, the IC50 in [3] (CYP1A2 IC50) came to 151 µM; in [7] (CYP2C9 IC50) it was 72.9 µM; in series [4] (CYP2C19 IC50) it was 156 µM; in [5] (CYP2D6 IC50) it was 0.43 µM; in series [6] (CYP3A4 IC50), 71.8 µM.
As to `CCCCC(CC)CN1C(=O)C2C3C=CC(C3)C2C1=O` (centres unmarked) [MGK-264], in series [1], the “Luciferase IC50” value is “Inactive”. Further, the “CYP2D6 Efficacy” value in [10] is reported as 31.36 ± 8.74 (-86 ± 27) %. Moreover, the IC50 in series [3] came out at 18.6 µM; in series [7] it was 10.1 µM; in series [4], 4.9 µM; in series [5] it was 31.4 µM; in series [6], 0.86 µM.
On to `CCOC(=O)N(C)C(=O)CSP(=S)(OCC)OCC` [Mecarbam], for which the “Luciferase IC50” value in [1] is given as “Inactive”. In addition, the IC50 in [3] (CYP1A2 IC50) was 2.91 µM; in series [7] (CYP2C9 IC50), 0.7 µM; in series [4] (CYP2C19 IC50), 0.09 µM; in [5] (CYP2D6 IC50), 27.5 µM; in [6] (CYP3A4 IC50), 2.6 µM.
`CC(C)Nc1ccc(Nc2ccccc2)cc1` [N-Isopropyl-N'-phenyl-p-phenylenediamine]: the IC50 in series [1] amounted to 34.2 µM; in series [3] (CYP1A2 IC50), 35.5 µM; in series [7] (CYP2C9 IC50), 0.97 µM; in series [4] (CYP2C19 IC50) it was 4.25 µM; in series [5] (CYP2D6 IC50), 9.04 µM; in series [6] (CYP3A4 IC50) it was 17.3 µM. Also, in [1], the “Luciferase Efficacy” value is listed as 34.17 ± 2.23 (-75 ± 7) %.
`COc1ccc(S(=O)(=O)N2C(=O)[C@@](c3ccccc3OC)(N3C[C@H](O)C[C@H]3C(=O)N(C)C)c3cc(Cl)ccc32)c(OC)c1` [Nelivaptan]: the “Luciferase IC50 (half-maximal inhibitory concentration)” value in series [1] is on record as “Inactive”. Besides, the “CYP2D6 Efficacy” value in series [10] was 55.12 ± 29.45 (-53 ± 5) %. Moreover, the IC50 in series [3] worked out at 53.3 ± 25 µM; in [7] it was 44.5 ± 24.6 µM; in series [4], 27.6 ± 19.5 µM; in series [5] it was 55.1 ± 29.4 µM; in series [6] it was 0.07 ± 0.02 µM.
On to `O=c1[nH]c2ccccc2n1CCCN1CCN(C(c2ccccc2)c2ccccc2)CC1` [Oxatomide], for which the “Luciferase IC50” value in series [1] was “Inactive”. Moreover, the “CYP1A2 IC50” value in series [8] was “Inactive”. For the same compound, in series [11], the “CYP2C19 AC50 (half-maximal activity concentration)” value was “Inconclusive inhibitor”. Further, the “CYP3A4 IC50” value in series [9] is reported as 1.39 ± 0.16 (164 ± 14) µM. Moreover, the AC50 came out at 25.3 µM in series [7] (CYP2C9 AC50 (half-maximal activity concentration)), 0.62 µM in series [5] and 1.39 µM in series [6]. Moreover, the IC50 in series [7] (CYP2C9 IC50) was 25.3 µM; in series [4] (CYP2C19 IC50), 33.2 µM; in series [5] (CYP2D6 IC50), 0.62 µM.
